Reference: patent US20090226393A1 (NITTO DENKO CORPORATION, priority 2008, published 2009)

Assays:
[1] = system: B16 melanoma
[2] = system: NCI-H460 non-small cell lung cancer xenograft; settings: 550 mg/kg paclitaxel equivalent, IV, q7dx2, compared to Abraxane
Excerpt: Dosage amounts may be adjusted based on the maximum tolerated dose (MTD) of the pharmaceutical composition.

[3] = female, nu/nu, mouse, in vivo, iv, 40 mg/kg
[4] = mouse, in vivo
[5] = Biodistribution in different organs (drug accumulation study); settings: 48 hours post administration
Description: Plasma, tumor and samples of the major organ were collected at intervals out to 340 hours. […] Pharmacokinetic parameters were estimated using WinNonlin software using a non-compartment model.
For each drug, groups of 6 mice were anesthetized at various time points and 0.3 ml of blood, obtained by cardiac puncture, was collected into heparinized tubes. Thereafter, mice were sacrificed before recovering from anesthesia and the following tissues were harvested and frozen from each animal: each of the 4 tumors, lung, liver, spleen, both kidneys, skeletal muscle and heart. […] For each drug a total 72 mice were required (6 mice/time point, 12 time points).

Row | Compound | tumor volume compared to Abraxane [1] | % TGD (tumor growth delay) [2] [%] | T1/2 Terminal [3] [h] | detected in the feces [4] | amount retained in kidney [5] | amount retained in liver [5] | amount retained in lung [5] | amount retained in spleen [5]
1 | poly-(gamma-L-glutamyl glutamine)-paclitaxel [PGGA70K-PTX35] | significantly reduced tumor volume | 136 |  |  |  |  |  | 
2 | CC(=O)O[C@H]1C(=O)[C@@]2(C)[C@H]([C@H](OC(=O)c3ccccc3)[C@]3(O)C[C@H](OC(=O)[C@H](O)[C@@H](NC(=O)c4ccccc4)c4ccccc4)C(C)=C1C3(C)C)[C@]1(OC(C)=O)CO[C@@H]1C[C@@H]2O [PTX, Paclitaxel] |  |  | 51 | approximately 72% | less than 2 μg/g | less than 2 μg/g | less than 2 μg/g | less than 2 μg/g
